Experimental data: US11931347B2, “Method of screening for agents for differentiating stem cells” (MINERVA BIOTECHNOLOGIES CORPORATION, priority 2015, dated 2024)
Each block holds one molecule with its values, some of them ahead of it.

Legend:
[1] = system: human primed state stem cells; assay: stem cell drug screening assay on primed state stem cells; type: cell-based; set-up: key to effect on primed state stem cells, score: “−” indicates that at 6 uM the drug candidate did not have an obvious effect on the pluripotency or proliferation of the stem cells; A “+” indicates a mild effect; a score of −, or +, ++, +++, or ++++ is given; a score of −, or +, ++, +++, or ++++ is given; “++++” indicates a profound effect on pluripotency or proliferation
Procedure: (§1) The stem cell screening assay, was performed in both the presence and absence of the stem cell growth factors: NME7AB for growing naïve stem cells or FGF for growing primed stem cells. If the cognate growth factor was present, then the biological or small molecule would have to compete away the growth factor to get an effect. Therefore, we expected to see more of an effect when the growth factor, FGF for primed stem cells or NME7AB or NME1 dimers for naïve stem cells, was absent. The effect of the compounds on stem cells was visually determined and compounds were ranked 0-4, with 4 being the greatest effect and 0 being no observable effect. The major effect that was observed was a change from pluripotent stem cell morphology, which is a cobblestone pattern of small round cells with a large nucleus to cytoplasm ratio, to that of differentiating stem cells, which are elongated, large and flattened cells with a smaller nucleus to cytoplasm ratio. […] The compounds were added to a final concentration of 6 uM to either naïve state stem cells or primed state stem cells. In this particular case, the naïve state stem cells were maintained in a naïve state by culturing in a media containing NME7AB or NME1 dimers. However, other methods such as 2i and 5i (Silva et al., 2008, Nichols and Smith, 2009, Theunissen et al., 2014)] can be used to maintain stem cells in a more naïve state. In this case primed state stem cells were cultured in bFGF over a layer of MEFs, although it is known that any bFGF containing media will maintain stem cells in the primed state.
Stem cells whether embryonic or induced pluripotent stem (iPS) cells were cultured in a minimal, serum-free media that contained human recombinant bFGF at a concentration of 8 ng/mL. The stem cells were plated over a layer of inactivated mouse embryonic fibroblasts, aka MEFs, which secrete additional uncharacterized growth factors and cytokines.
(§2) Human naïve state and primed stem cells were cultured in parallel for at least 5 passages to guarantee normal differentiation-free growth. The stem cells were plated in 12-well cell culture plates with 50,000 cells per well. Cells were cultured in their respective media, either bFGF media or NME7AB media for 24 hours. Media was then removed and replaced with media devoid of bFGF or NME7AB, when indicated. Agents being tested for their ability to induce differentiation of naïve stem cells were added to the media at the concentrations indicated. After 72 hours, photographs were taken see FIGS. 1-10.
(§3) Human naïve state and primed stem cells were cultured in parallel for at least 5 passages to guarantee normal differentiation-free growth. The stem cells were plated in 12-well cell culture plates with 50,000 cells per well. Cells were cultured in their respective media, either bFGF media or NME7AB media for 24 hours. Media was then removed and replaced with media devoid of bFGF or NME7AB. […] Media was changed after 48 hours and replaced with fresh media containing the BRD4 inhibitors. After 4 days the experiment was stopped. Photographs were taken and cell pellets collected for further analysis, see FIGS. 11-16.

[2] = system: T47D breast cancer cells; assay: cancer cell proliferation assay (Calcein live cell stain); type: cell-based, human; conditions: for inhibition of cancer cell proliferation relative to parent compounds: T47D, Calcein assay after 120 hours, 40-2.5 uM
Procedure: These analogs of MN1194 and 1186 were also tested in a cell growth assay (FIGS. 107A1-107H6 and FIG. 108A1-108H6, respectively). In this experiment, both parent compound and analogs thereof were added to normal cell culture media to final concentrations of 40 uM, 20 uM, 10 uM, 5 uM or 2.5 uM. For comparison, previously known cancer cell migration inhibitors SU11274 and MN1204 were included in the same experiment. […] Relative cell proliferation is quantified on a standard plate reader that reads the fluorescence of the Calcein that is taken up by live cells.
Small molecule inhibition of cancer cell proliferation studies were also performed on several cancer sub-types. […] The small molecules of the invention had the most robust effect on T47D breast cancer cells, which are highly positive for MUC1* growth factor receptor, and its activating ligands NME7AB and NME7-X1.
(§4) For the cancer cell proliferation experiment cancer cells were plated at constant densities (6000 cells/well) into a 96-well White-walled/Clear-bottom Tissue Culture Treated plate (Corning Incorporated, Big Flats, N.Y.). Small molecule analogs are added at T=24 hours in media with 2% FBS. Following the addition of the small molecules, the cells remain untouched for 120 hours with visual confirmations/inspections at 24, 48, 72 and 96 hours post plating. At the 120 hour mark a calcein fluorescence assay (Thermo Fisher Scientific, Waltham, Mass.) is performed on the plate. Calcein fluorescence (final concentration 0.5 uM) is used to assess cell viability. Cancer cell fluorescence is measured in a TECAN SAFIRE^2 spectrophotometer plate reader. The plate is then imaged using an Olympus IX71 fluorescence imaging microscope and montage of the resulting images are assembled using ImageJ.

[3] = system: DU145 MUC1* positive prostate cancer cells; assay: cancer cell proliferation assay (Calcein); type: cell-based; conditions: 96 hours (FIG. 109)
Procedure: as §4, with “Small molecule inhibition of cancer cell proliferation studies were also performed on several cancer sub-types. […] The small molecules of the invention had the most robust effect on T47D breast cancer cells, which are highly positive for MUC1* growth factor receptor, and its activating ligands NME7AB and NME7-X1. […] For” for “For”

[4] = system: MDA-MB-453 breast cancer cells; assay: cancer cell proliferation assay (Calcein); type: cell-based; conditions: 96 hours (FIG. 110)
Procedure: as §4, with “Small molecule inhibition of cancer cell proliferation studies were also performed on several cancer sub-types. […] The small molecules of the invention had the most robust effect on T47D breast cancer cells, which are highly positive for MUC1* growth factor receptor, and its activating ligands NME7AB and NME7-X1. […] For” for “For”

[5] = system: PC-3 MUC1* negative, NME7AB positive prostate cancer cells; assay: cancer cell proliferation assay (Calcein); type: cell-based; conditions: 96 hours (FIG. 111)
Procedure: as §4, with “Small molecule inhibition of cancer cell proliferation studies were also performed on several cancer sub-types. […] The small molecules of the invention had the most robust effect on T47D breast cancer cells, which are highly positive for MUC1* growth factor receptor, and its activating ligands NME7AB and NME7-X1. […] For” for “For”

[6] = system: human naïve state stem cells; assay: stem cell drug screening assay on naïve state stem cells; type: cell-based; set-up: key to effect on naïve stem cells, score: “−” indicates that at 6 uM the drug candidate did not have an obvious effect on the pluripotency or proliferation of the stem cells; A “+” indicates a mild effect; a score of −, or +, ++, +++, or ++++ is given; a score of −, or +, ++, +++, or ++++ is given; “++++” indicates a profound effect on pluripotency or proliferation; conditions: 6 uM, 3 days, NME7AB absent
Procedure: as §1
Stem cells whether embryonic or induced pluripotent stem (iPS) cells were cultured in a minimal, serum-free media that contained human recombinant NME7AB at a concentration of 2-32 nM wherein 4-8 nM is preferred and 4 nM is more preferred. To facilitate surface attachment, cell culture plates were coated with an anti-MUC1* monoclonal antibody called MN-C3 or C3 or MN-C8 at a concentration of 2-100 ug/mL coating solution, wherein 3-50 ug/mL is preferred and 6-12.5 ug/mL is more preferred. In these experiments, 12.5 ug/mL of MN-C3 was used. Antibody coated plates were incubated at 4 degrees C. overnight prior to plating stem cells. A Rho kinase I inhibitor was added to enhance surface attachment. In some cases, NME7AB was substituted with human recombinant NME1 dimers which also induce stem cells to revert to a naïve-like state.
as §2, §3

[7] = system: T47D breast cancer cells; assay: cancer cell migration, invasion assay (Platypus/Oris system); type: cell-based, human; conditions: T47D; for inhibition of cancer cell migration: 120 hours; for IC50: Homo sapiens, curves calculated from 72 hour post dosing time point, read-out: IC50 of inhibition of cancer cell migration
Procedure: We then tested an expanded panel of agents, including agents known to inhibit cancer growth or migration (FIG. 17) (Horm et al., 2012; Meng & Yue, 2014; Zhen et al., 2014), which is characteristic of aggressive or metastatic cancers. We also synthesized a series of novel small molecules, tested them in the stem cell drug screening assay, and then synthesized analogs of the best hits. These small molecules are pictured in FIGS. 18-27. Both the known compounds and the novel compounds were tested in the stem cell drug screening assay. The effects of the small molecules on naïve versus primed state stem cells are shown in the photographs of FIGS. 29-72. The small molecules pictured in FIGS. 17-27 and the biologicals were also tested in a cancer cell migration assay. A structure activity relationship table is seen in FIG. 28. Potent cancer cell migration is characteristic of cancer cell invasion of other tissues and of metastasis. Typical migration assays involve coating a cell culture plate with fibronectin, collagen or the like, plating cancer cells and making a scar across through the cells and measuring the time it takes for the cancer cells to invade the void space. An alternative approach that gives more reliable data is the Platypus System which is a special multi-well cell culture plate with a juxtaposed set of plugs that block off a circle in the center of each well. Cancer cells are plated while the plugs are in place, then they are removed after the cells attach to the plate surface. […] A bar graph summarizing the results of the known anti-migration compounds compared to the anti-MUC1* Fab E6 and the first few small molecules synthesized is shown in FIG. 73. The effect of two novel small molecules MN1186 and MN1194, compared to the known anti-migration molecule SU11274, is shown in FIG. 75A-75U. FIG. 75V is a graph showing the measured inhibition of cancer cell migration at time 0, 24 hours or 48 hours for a number of compounds. […] FIG. 75X is a graph showing how IC50's of the small molecules of the invention were measured and calculated.
Percent inhibition of cancer cell migration was performed in a wound healing assay. The Percent area that the invading cancer cells occupied, in the presence of a drug candidate compared to the controls, was quantified by Image J cell software which enables cell counting from photographs. IC50's were calculated by performing migration experiments at several compound concentrations and then applying Hill's equation. Inhibition of cancer cell proliferation was quantified by automated cell counting in the presence or absence of a drug candidate. Here, the potency of the drug candidate was simply scored 4 for the highest degree of inhibition and 0 for the lowest. […] The effect of each drug candidate was scored 0-4, with 4 being the highest in inhibiting cell proliferation (FIG. 28).
For the cancer cell migration experiment cancer cells were plated at varying densities into an Oris Cell Migration Assay Collagen-1 coated 96-well plate (Platypus Technologies LLC, Madison, Wis.). The Collagen-1 coated 96-well plate incorporates a specific vacuum plug which attaches to the bottom of each well, creating an area in which the cells cannot grow into. Once the cells have been plated at high densities into each well, they are allotted an 18-24 hour time period to attach to the bottom of the wells. Post-24 hour plugs are removed from the plate and then small molecule analogs are added to the wells. Images are taken of each well and represent time 0 (T=0) for each well. Images are taken of the wells at the 24, 48, 72, 96 and 120 hour time points. Data analysis is conducted using the images taken at these specific time point. Images are imported into ImageJ (Rasband, W. S., ImageJ, U. S. National Institutes of Health, Bethesda, Md., USA, http://imagej.nih.gov/ij/, 1997-2016.) and the area remaining free of cells is calculated. […]

Compound: Cc1sc2c(c1C)C(c1ccc(Cl)cc1)=N[C@@H](CC(=O)OC(C)(C)C)c1nnc(C)n1-2 [JQ1(−), JQ1]
induction of differentiation of primed state stem cells ([1]; treated for 3 days, bFGF absent): None of these agents appeared to induce differentiation

Compound: CC(C)CC1c2[nH]c3ccccc3c2CCN1C(=O)CCc1ccccc1 (stereo not drawn) [MN1133]
inhibition of growth of T47D cells ([2]; live cell Calcein stain, 96 hours (FIG. 113)): severely inhibited growth | inhibition of growth of DU145 cells [3]: inhibited the growth | inhibition of growth of MDA-MB-453 cells [4]: inhibited the growth | inhibition of growth of PC-3 cells [5]: inhibited the growth

Compound: CC(C)CC1c2[nH]c3ccccc3c2CCN1C(=O)CNC(=O)OC(C)(C)C (stereo not drawn) [MN1186]
effect on naïve stem cells, score [6]: ++++ | effect on primed state stem cells, score ([1]; 6 uM, 3 days, FGF absent): ++ | inhibition of cancer cell migration [7]: most potent inhibitors of cancer cell migration

Compound: CC(C)CC1c2[nH]c3ccccc3c2CCN1C(=O)CCCNC(=O)OC(C)(C)C (stereo not drawn) [MN1190]
inhibition of cancer cell migration [7]: improvements over MN1186 | inhibition of cancer cell proliferation relative to parent compounds [2]: inhibit cancer cell proliferation better than parent compounds

Compound: CC(C)CC1c2[nH]c3ccccc3c2CCN1C(=O)CCCCNC(=O)OC(C)(C)C (stereo not drawn) [MN1194]
effect on naïve stem cells, score [6]: ++++ | effect on primed stem cell pluripotency, growth or differentiation (visually determined) ([1]; 6 uM, 3 days): barely affected | inhibition of cancer cell migration [7]: most potent inhibitors of cancer cell migration

Compound: CC(C)CC1c2[nH]c3ccccc3c2CCN1C(=O)CCCCCNC(=O)OC(C)(C)C (stereo not drawn) [MN1195]
inhibition of cancer cell migration [7]: improvements over MN1186 | inhibition of cancer cell proliferation relative to parent compounds [2]: inhibit cancer cell proliferation better than parent compounds

Compound: CC(C)CC1c2[nH]c3cc(Cl)ccc3c2CCN1C(=O)CNC(=O)OC(C)(C)C (stereo not drawn) [MN1228]
inhibition of cancer cell migration [7]: improvements over MN1186 | inhibition of cancer cell proliferation relative to parent compounds [2]: inhibit cancer cell proliferation better than parent compounds

Compound: CC(C)CC1c2[nH]c3cc(F)ccc3c2CCN1C(=O)CCCCNC(=O)OC(C)(C)C (stereo not drawn) [MN1229]
inhibition of cancer cell migration [7]: improvements over MN1186 | inhibition of cancer cell proliferation relative to parent compounds [2]: inhibit cancer cell proliferation better than parent compounds

IC50 [7]: 770 nM
Compound: Cc1ccc2[nH]c3c(c2c1)CCN(C(=O)C1CCC(CNC(=O)OC(C)(C)C)CC1)C3CC(C)C (stereo not drawn) [MN1265]

IC50 [7]: 1290 nM
Compound: CC(C)CC1c2[nH]c3ccc(F)cc3c2CCN1C(=O)C1CCC(CNC(=O)OC(C)(C)C)CC1 (stereo not drawn) [MN1266]
